Starred links: 1 amine or outer side, 2 acyl side, 3 side chain; linkers in the order of their positions; H or OH if unused. Non-standard residues stand in square brackets, D forms with d. Residues, ends and D or L forms follow the SMILES beside them. αMeNva(5-ylidene) = C[C@@](CCC=[*:3])(N[*:1])C(=O)[*:2]; S5 = C=CCCC[C@](C)(N)C(=O)O
Columns and labels:
[1] = target: T1, HIV-1 integrase (IN) (Human immunodeficiency virus type 1 group M subtype B, UniProt P04585); test: In vitro HIV-1 IN catalytic activity inhibition, 3′-processing; assay type: biochemical
[2] = target: T1, HIV-1 integrase (IN); test: In vitro HIV-1 IN catalytic activity inhibition, strand transfer; assay type: biochemical
[3] = tested on: MT-4 cells; test: Cytotoxicity in MT-4 cells; assay type: cell-based; conditions: 50% cell-death in same cells (MT-4)
[4] = tested on: HIV-1; conditions: 50% cytoprotective activity in HIV-1 infected MT-4 cells

Structure (SMILES)	IC50 [1]	IC50 [2]	CC50 [3]	EC50 [4]
C=CCC[C@](C)(NC(=O)[C@H](CC(C)C)NC(=O)[C@H](CCCCN)NC(=O)[C@H](CC(C)C)NC(=O)[C@](C)(CCC=C)NC(=O)[C@H](Cc1ccccc1)NC(=O)[C@H](Cc1ccc(O)cc1)NC(=O)[C@H](C)NC(=O)[C@@H](N)[C@@H](C)O)C(=O)NCC(=O)N[C@@H](CCCNC(=N)N)C(=O)N[C@@H](Cc1c[nH]c2ccccc12)C(N)=O [NLH11] (H-TAYF[αMeNva(5-ylidene)]LKL[αMeNva(5-ylidene)]GRW-NH2; N-terminus assumed)	74 ± 11 µM	68 ± 5 µM	18 µM	> 18 µM
C=CCCC[C@](C)(NC(=O)[C@H](CC(C)C)NC(=O)[C@H](CCCCN)NC(=O)[C@H](CC(C)C)NC(=O)[C@](C)(CCCC=C)NC(=O)[C@H](Cc1ccccc1)NC(=O)[C@H](Cc1ccc(O)cc1)NC(=O)[C@H](C)NC(=O)[C@@H](N)[C@@H](C)O)C(=O)NCC(=O)N[C@@H](CCCNC(=N)N)C(=O)N[C@@H](Cc1c[nH]c2ccccc12)C(N)=O [NLH5] (H-TAYF[S5]LKL[S5]GRW-NH2; N-terminus assumed)	9 ± 1 µM	6 ± 1 µM	28 µM	28 µM

Reference: article PMC6188661 (Journal of medicinal chemistry, 2013)
